Experimental data as given in patent US7393872B2, “Sodium channel blocker compositions and the use thereof” (Euro-Celtique S.A., priority 1999, dated 2008).

Key:
[1] = test system: Chung model of neuropathic rats; test: Tactile allodynia in the Chung model of peripheral neuropathy; format: in vivo, rat; settings: given alone, FIG. 2
Method: Male Sprague-Dawley rats weighing between 200-225 g were anesthetized with halothane (1-3% in a mixture of 70% air and 30% oxygen) and their body temperature controlled during anesthesia through use of a homeothermic blanket. A 2-cm dorsal midline incision was then made at the L5 and L6 level and the para-vertibral muscle groups retracted bilaterally. L5 and L6 spinal nerves were then be exposed, isolated, and tightly ligated with 6-0 silk suture. A sham operation was performed exposing the contralateral L5 and L6 spinal nerves as a negative control.
Tactile Allodynia: Rats were transferred to an elevated testing cage with a wire mesh floor and allowed to acclimate for five to ten minutes. A series of Semmes-Weinstein monofilaments were applied to the plantar surface of the hindpaw to determine the animal's withdrawal threshold. […] This procedure was repeated with subsequent lesser filaments until there was no response and the lightest filament that elicited a response was recorded. […] For each animal, three measurements were made at every time point to produce an average withdrawal threshold determination. Tests were performed prior to and at 1, 2, and 24 hrs post drug administration. Tactile allodynia and mechanical hyperalgesia tests were conducted concurrently.

chronic pain = settings: clinical trials; 15-20% of patients treated with placebo showed effectiveness; cited from earlier work

SMILES	tactile antiallodynia effect (withdrawal threshold) ([1]; 1.25 mg/kg p.o.)	tactile antiallodynia effect (withdrawal threshold) ([1]; 25 mg/kg s.c.)	patient population that showed effectiveness (chronic pain)
NC(=O)NN=Cc1ccc(Oc2ccc(F)cc2)cc1 [Co 102862, 4-(4′-fluoro-phenoxy)benzaldehyde semicarbazone]	moderate antiallodynia effect		
NCC1(CC(=O)O)CCCCC1 [gabapentin, 1-(aminomethyl)cyclohexaneacetic acid]		minimum or no effect	less than 50%
